Measurements taken from patent US20210347736A1, “CRYSTALLINE FORMS OF A FARNESOID X RECEPTOR AGONIST” (Metacrine, Inc., priority 2018, published 2021).
Entries after “also recorded” stand apart in the source; their conditions may differ.

Key:
hFXR = target: T1, hFXR (Homo sapiens, UniProt Q96RI1); assay: In Vitro FXR Assay (TK hFXR luciferase reporter in transfected CV-1 cells); assay type: cell-based; conditions: CV-1 cells transfected with hFXR, hRXR, TK-ECRE-luc; 18 hrs incubation; luminescence
T1 construct: expressed in transfected cells; host or cells: CV-1 cells
T1 sequence (Q96RI1 1-486): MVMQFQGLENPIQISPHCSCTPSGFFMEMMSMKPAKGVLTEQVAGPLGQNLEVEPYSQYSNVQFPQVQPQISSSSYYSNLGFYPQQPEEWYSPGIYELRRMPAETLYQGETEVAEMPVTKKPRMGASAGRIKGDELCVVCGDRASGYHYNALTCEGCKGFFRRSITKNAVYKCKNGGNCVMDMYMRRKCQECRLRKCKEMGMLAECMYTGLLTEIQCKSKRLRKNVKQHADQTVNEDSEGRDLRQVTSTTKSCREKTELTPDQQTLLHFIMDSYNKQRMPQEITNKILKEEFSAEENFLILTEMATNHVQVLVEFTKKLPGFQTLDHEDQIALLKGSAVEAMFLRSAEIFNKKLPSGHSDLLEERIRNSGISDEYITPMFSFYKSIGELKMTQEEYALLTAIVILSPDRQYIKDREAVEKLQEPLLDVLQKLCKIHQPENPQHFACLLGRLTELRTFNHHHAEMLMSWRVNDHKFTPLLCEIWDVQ
T1 sequence (P19793 1-462 partner): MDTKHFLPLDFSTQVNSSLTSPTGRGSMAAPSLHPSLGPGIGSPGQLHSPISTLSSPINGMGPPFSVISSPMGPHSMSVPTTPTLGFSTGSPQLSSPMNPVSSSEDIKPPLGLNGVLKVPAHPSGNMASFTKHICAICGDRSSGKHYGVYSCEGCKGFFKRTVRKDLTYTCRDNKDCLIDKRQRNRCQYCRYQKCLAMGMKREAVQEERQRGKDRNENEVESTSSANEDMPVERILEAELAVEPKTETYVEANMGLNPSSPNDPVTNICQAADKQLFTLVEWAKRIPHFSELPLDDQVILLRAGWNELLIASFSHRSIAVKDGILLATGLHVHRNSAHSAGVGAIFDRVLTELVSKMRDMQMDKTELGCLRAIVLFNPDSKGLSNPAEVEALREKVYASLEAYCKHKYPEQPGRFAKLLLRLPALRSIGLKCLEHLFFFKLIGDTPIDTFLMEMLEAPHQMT
Description: CV-1 cells were seeded at a density of 2,000,000 cells in a T175 flask with DMEM+10% charcoal double-stripped FBS and incubated at 37° C. in 5% CO2 for 18 h (O/N).
After 18 h of incubation, the medium in the T175 flask was changed with fresh DMEM+10% charcoal super-stripped serum. In a polypropylene tube, 2500 μL OptiMEM (Life Technologies, Cat #31985-062) was combined with expression plasmids for hFXR, hRXR, TK-ECRE-luc and pCMX-YFP. The tube was then briefly vortexed and incubated at room temperature for 5 minutes. Transfection reagent (X-tremeGENE HP from Roche, Cat #06 366 236 001) was added to the OptiMEM/plasmid mixture vortexed and incubated at room temperature for 20 minutes. Following incubation, the transfection reagent/DNA mixture complex was added to cells in the T175 flask and the cells were incubated at 37° C. in 5% CO2 for 18 h (O/N).
Compound 1 was serially diluted in DMSO and added to transfected CV-1 cells. The cells were then incubated for 18 hrs. The next day cells were lysed and examined for luminescence.

[1] = Storage stability of Form 1 for 7 days at elevated humidity (HPLC purity, XRPD); assay type: physicochemical
Description: X-Ray Powder Diffraction patterns were collected on a Bruker D8 diffractometer using Cu Kα radiation (40 kV, 40 mA), 0-20 goniometer, and divergence of V4 and receiving slits, a Ge monochromator and a Lynxeye detector. The instrument was performance checked using a certified Corundum standard (NIST 1976). The software used for data collection was Diffrac Plus XRD Commander v2.6.1 and the data were analysed and presented using Diffrac Plus EVA v15.0.0.0.
Samples were run under ambient conditions as flat plate specimens using powder as received. The sample was gently packed into a cavity cut into polished, zero-background (510) silicon wafer. The sample was rotated in its own plane during analysis. The parameters for data collection were: angular range, 2 to 42° 2θ; step size, 0.05° 2θ; collection time, 0.5 s/step.
Purity analysis was performed on an Agilent HP1100 series system equipped with a diode array detector and using ChemStation software vB.04.03 using the method detailed in Table 4 below:
Further, Form 1 of Compound 1 was unchanged by XRPD after 7 days at 25° C. and 97% RH (see FIG. 6, trace (b)).
Further, Form 1 of Compound 1 was unchanged by XRPD after 7 days at 40° C. and 75% RH (see FIG. 6, trace (c)).

[2] = Gravimetric Vapor Sorption (GVS); assay type: physicochemical
Description: Sorption isotherms were obtained using a SMS DVS Intrinsic moisture sorption analyser, controlled by DVS Intrinsic Control software v1.0.1.2 (or v1.0.1.3). The sample temperature was maintained at 25° C. by the instrument controls. The humidity was controlled by mixing streams of dry and wet nitrogen, with a total flow rate of 200 ml/min The relative humidity was measured by a calibrated Rotronic probe (dynamic range of 1.0-100% RH), located near the sample. The weight change, (mass relaxation) of the sample as a function of % RH was constantly monitored by the microbalance (accuracy ±0.005 mg).
Typically 5-20 mg of sample was placed in a tared mesh stainless steel basket under ambient conditions. The sample was loaded and unloaded at 40% RH and 25° C. (typical room conditions). A moisture sorption isotherm was performed as outlined below (2 scans giving 1 complete cycle). The standard isotherm was performed at 25° C. at 10% RH intervals over a 0-90% RH range. Data analysis was carried out using Microsoft Excel using DVS Analysis Suite v6.2 (or v6.1 or v6.0).
The sample was recovered after completion of the isotherm and re-analysed by XRPD.

[3] = after 7 days at 25° C. and 97% RH
[4] = after 7 days at 40° C. and 75% RH

Structure (SMILES)	EC50 (hFXR)	HPLC purity after storage [1, 3]	change by XRPD after storage [1, 3]	HPLC purity after storage [1, 4]	change by XRPD after storage [1, 4]	Post-GVS analysis by XRPD ([2]; after GVS)	moisture uptake by GVS ([2]; between 0-90% RH, 25° C.)	hygroscopicity / moisture uptake by GVS (in words) ([2]; summary statement)
COc1ccc([C@H]2CC[C@H](CN(c3cccc(-c4cnn(C5CC5)c4)c3)C(=O)[C@H]3CC[C@H](O)CC3)CC2)cc1C [Compound 1, trans-N-(3-(1-cyclopropyl-1H-pyrazol-4-yl)phenyl)-4-hydroxy-N-((trans-4-(4-methoxy-3-methylphenyl)cyclohexyl)methyl)cyclohexanecarboxamide]	≤ 250 nM							
COc1ccc([C@H]2CC[C@H](CN(c3cccc(-c4cnn(C5CC5)c4)c3)C(=O)[C@H]3CC[C@H](O)CC3)CC2)cc1C [Form 1 of Compound 1, trans-N-(3-(1-cyclopropyl-1H-pyrazol-4-yl)phenyl)-4-hydroxy-N-((trans-4-(4-methoxy-3-methylphenyl)cyclohexyl)methyl)cyclohexanecarboxamide]		99.40 % AUC	unchanged; also recorded: no changes	99.48 % AUC	unchanged; also recorded: no changes	no change	0.02%	non-hygroscopic; also recorded: No significant moisture uptake
